Measured values reported in patent US10544154B2, “Opioid receptor antagonist prodrugs” (Nirsum Laboratories, Inc., priority 2017, dated 2020).

Assays:
[1] = Polymorph screening of solid state drug substances; type: physicochemical; conditions: for Dry method and appearance: after stirring at 50 °C for 72 hours; for XRPD results (Dried): dried solid
[2] = Plasma stability, rat plasma (HPLC-MS); type: in vitro ADME; conditions: 10 μM, 37° C.
Method: Plasma stability determination of the test compounds in rat, dog, cynomolgus monkey and human plasma is performed using HPLC-MS. For rat, incubations are carried out in 96-well polypropylene plates in 5 aliquots of 70 μL each (one for each time point). […] Five time points are analyzed (0, 15, 120, 480 and 1440 min). For dog, monkey and human, test compounds (2 μM, final solvent concentration 1%) were also incubated at 37° C. and analyzed at five time points (0, 10, 30, 60 and 120 min). All incubations are performed in duplicates. The samples are analyzed by HPLC-MS. The percentage of parent compound remaining after incubation in plasma is determined.

[3] = Clinical observations for dogs in pharmacokinetic studies; type: in vivo, Beagle dogs; conditions: dog D1503, 96 mg/kg, Day 1
Method: Weight monitoring was done every week.
The dose formulation (concentration—400 mg base equivalents/ml in sesame oil+1% benzyl alcohol, unless otherwise specified) was administered via deep intramuscularly (unless otherwise specified). The injection vehicle was also dosed via deep intramuscular route (unless otherwise specified) on contralateral site of each animal at study initiation. The animals were sedated with Propofol at 6 mg/kg via IV administration. Following sedation hair was carefully removed from around the injection site and the area gently cleaned. Care will be taken to avoid irritating skin during shaving and cleaning the injection site. Then dogs will be dosed with deep IM administration. At least 2.5 cm depth from the surface into the central aspect of the quadriceps or biceps femoris muscle, by angling the needle toward the femur. If the needle hits the femur, simply draws back slightly and then inject. The dose volume will be determined by the animals' body weight collected on the morning of dosing day. For repeated administration, the injection sites may be rotated to minimize tissue injury.

| Compound | % remaining at time point in minutes, 0 min [2] | % remaining at time point in minutes, 15 min [2] | % remaining at time point in minutes, 120 min [2] | % remaining at time point in minutes, 480 min [2] | % remaining at time point in minutes, 1440 min [2] | further results |
| --- | --- | --- | --- | --- | --- | --- |
| CCCCCCCCCCOC(=O)Oc1ccc2c3c1O[C@H]1C(=O)CC[C@@]4(O)C(C2)N(CC2CC2)CC[C@]314 [Compound 10, (4aS,7aR,12bS)-3-(cyclopropylmethyl)-4a-hydroxy-7-oxo-2,3,4,4a,5,6,7,7a-octahydro-1H-4,12-methanobenzofuro[3,2-e]isoquinolin-9-yl decyl carbonate] | 100% | 0% | 0% | 0% | 0% | Dry method and appearance ([1]; Acetone): Evaporation/White wax; XRPD results (Dried) ([1]; Acetone): Pattern A; Dry method and appearance ([1]; EtOAc): Evaporation/White wax; XRPD results (Dried) ([1]; EtOAc): Pattern A; Dry method and appearance ([1]; Heptane): Centrifugation/White wax; XRPD results (Dried) ([1]; Heptane): Pattern A; Dry method and appearance ([1]; Isopropanol): Evaporation/White wax; XRPD results (Dried) ([1]; Isopropanol): Pattern A; Dry method and appearance ([1]; MTBE): Evaporation/White wax; XRPD results (Dried) ([1]; MTBE): Pattern A |
| C=C1CC[C@@]2(O)C3Cc4ccc(OC(=O)CCCCCCCCCCCCCCCCCCC)c5c4[C@@]2(CCN3CC2CC2)[C@H]1O5 [Compound 16, (4aS,7aS,12bS)-3-(cyclopropylmethyl)-4a-hydroxy-7-methylene-2,3,4,4a,5,6,7,7a-octahydro-1H-4,12-methanobenzofuro[3,2-e]isoquinolin-9-yl icosanoate] |  |  |  |  |  | Dry method and appearance ([1]; Acetone): Evaporation/white powder; XRPD results (Dried) ([1]; Acetone): Pattern A; Dry method and appearance ([1]; EtOAc): Evaporation/white powder; XRPD results (Dried) ([1]; EtOAc): Pattern A; Dry method and appearance ([1]; Heptane): Centrifugation/white powder; XRPD results (Dried) ([1]; Heptane): Pattern A; Dry method and appearance ([1]; Isopropanol): Centrifugation/white powder; XRPD results (Dried) ([1]; Isopropanol): Pattern A; Dry method and appearance ([1]; MTBE): Evaporation/white powder; XRPD results (Dried) ([1]; MTBE): Pattern A |
| C=C1CC[C@@]2(O)C3Cc4ccc(OC(=O)OCCCCCCCC)c5c4[C@@]2(CCN3CC2CC2)[C@H]1O5 [Compound 17, (4aS,7aS,12bS)-3-(cyclopropylmethyl)-4a-hydroxy-7-methylene-2,3,4,4a,5,6,7,7a-octahydro-1H-4,12-methanobenzofuro[3,2-e]isoquinolin-9-yl octyl carbonate] | 100% | 0% | 0% | 0% | 0% |  |
| C=C1CC[C@@]2(O)C3Cc4ccc(OC(=O)OCCCCCCCCCC)c5c4[C@@]2(CCN3CC2CC2)[C@H]1O5 [Compound 18, (4aS,7aS,12bS)-3-(cyclopropylmethyl)-4a-hydroxy-7-methylene-2,3,4,4a,5,6,7,7a-octahydro-1H-4,12-methanobenzofuro[3,2-e]isoquinolin-9-yl decyl carbonate] | 100% | 0.6% | 0.3% | 0.1% | 0% |  |
| CCCCCCCCOC(=O)Oc1ccc2c3c1O[C@H]1C(=O)CC[C@@]4(O)C(C2)N(CC2CC2)CC[C@]314 [Compound 23, (4aS,7aR,12bS)-3-(cyclopropylmethyl)-4a-hydroxy-7-oxo-2,3,4,4a,5,6,7,7a-octahydro-1H-4,12-methanobenzofuro[3,2-e]isoquinolin-9-yl octyl carbonate] | 100% | 0% | 0% | 0% | 0% |  |
| C=C1CC[C@@]2(O)C3Cc4ccc(OCOC(=O)OCCCCCCCCCCCCCC)c5c4[C@@]2(CCN3CC2CC2)[C@H]1O5 [Compound 25, (((4aS,7aS,12bS)-3-(cyclopropylmethyl)-4a-hydroxy-7-methylene-2,3,4,4a,5,6,7,7a-octahydro-1H-4,12-methanobenzofuro[3,2-e]isoquinolin-9-yl)oxy)methyl tetradecyl carbonate] | 100% |  |  |  |  |  |
| C=C1CC[C@@]2(O)C3Cc4ccc(OC(=O)OCCCCCCCCCCCCC)c5c4[C@@]2(CCN3CC2CC2)[C@H]1O5 [Compound 30, (4aS,7aS,12bS)-3-(cyclopropylmethyl)-4a-hydroxy-7-methylene-2,3,4,4a,5,6,7,7a-octahydro-1H-4,12-methanobenzofuro[3,2-e]isoquinolin-9-yl tridecyl carbonate] | 100% |  |  |  |  |  |
| C=C1CC[C@@]2(O)C3Cc4ccc(OC(=O)CCCCCCC/C=C\CCCCCCCC)c5c4[C@@]2(CCN3CC2CC2)[C@H]1O5 [Compound 36, (4aS,7aS,12bS)-3-(cyclopropylmethyl)-4a-hydroxy-7-methylene-2,3,4,4a,5,6,7,7a-octahydro-1H-4,12-methanobenzofuro[3,2-e]isoquinolin-9-yl oleate] | 100% |  |  |  |  |  |
| C=C1CC[C@@]2(O)C3Cc4ccc(OC(=O)NC(C)(C)C)c5c4[C@@]2(CCN3CC2CC2)[C@H]1O5 [Compound 40, (4aS,7aS,12bS)-3-(cyclopropylmethyl)-4a-hydroxy-7-methylene-2,3,4,4a,5,6,7,7a-octahydro-1H-4,12-methanobenzofuro[3,2-e]isoquinolin-9-yl tert-butylcarbamate] |  |  |  |  |  | Dry method and appearance ([1]; Acetone): Evaporation/white powder; XRPD results (Dried) ([1]; Acetone): Amorphous; Dry method and appearance ([1]; EtOAc): Evaporation/white powder; XRPD results (Dried) ([1]; EtOAc): Pattern A; Dry method and appearance ([1]; Heptane): Centrifugation/white powder; XRPD results (Dried) ([1]; Heptane): Pattern A; Dry method and appearance ([1]; Isopropanol): Evaporation/oil; XRPD results (Dried) ([1]; Isopropanol): Amorphous; Dry method and appearance ([1]; MTBE): Evaporation/white powder; XRPD results (Dried) ([1]; MTBE): Amorphous |
| C=C1CC[C@@]2(O)C3Cc4ccc(OCOC(=O)CCCCCCCCCCCCC)c5c4[C@@]2(CCN3CC2CC2)[C@H]1O5 [Compound 45, (((4aS,7aS,12bS)-3-(cyclopropylmethyl)-4a-hydroxy-7-methylene-2,3,4,4a,5,6,7,7a-octahydro-1H-4,12-methanobenzofuro[3,2-e]isoquinolin-9-yl)oxy)methyl tetradecanoate] |  |  |  |  |  | Clinical observations (cell spans L-vehicle and R-TA) [3]: Liquid feces about 20 mL |
| CCCCCCCCCCCCCCCCCCCC(=O)Oc1ccc2c3c1O[C@H]1C(=O)CC[C@@]4(O)C(C2)N(CC2CC2)CC[C@]314 [Compound 50, (4aS,7aR,12bS)-3-(cyclopropylmethyl)-4a-hydroxy-7-oxo-2,3,4,4a,5,6,7,7a-octahydro-1H-4,12-methanobenzofuro[3,2-e]isoquinolin-9-yl icosanoate] | 100% |  |  |  |  |  |
| CCCCCCCCCCCCCCCCCCCCCC(=O)Oc1ccc2c3c1O[C@H]1C(=O)CC[C@@]4(O)C(C2)N(CC2CC2)CC[C@]314 [Compound 51, (4aS,7aR,12bS)-3-(cyclopropylmethyl)-4a-hydroxy-7-oxo-2,3,4,4a,5,6,7,7a-octahydro-1H-4,12-methanobenzofuro[3,2-e]isoquinolin-9-yl docosanoate] | 100% |  |  |  |  |  |
| CCCCCCCCCCCCCCCCCC(=O)Oc1ccc2c3c1O[C@H]1C(=O)CC[C@@]4(O)C(C2)N(CC2CC2)CC[C@]314 [Compound 54, (4aS,7aR,12bS)-3-(cyclopropylmethyl)-4a-hydroxy-7-oxo-2,3,4,4a,5,6,7,7a-octahydro-1H-4,12-methanobenzofuro[3,2-e]isoquinolin-9-yl stearate] | 100% |  |  |  |  |  |
| CCCCCCCCCCCCCC(=O)Oc1ccc2c3c1O[C@H]1C(=O)CC[C@@]4(O)C(C2)N(CC2CC2)CC[C@]314 [Compound 57, (4aS,7aR,12bS)-3-(cyclopropylmethyl)-4a-hydroxy-7-oxo-2,3,4,4a,5,6,7,7a-octahydro-1H-4,12-methanobenzofuro[3,2-e]isoquinolin-9-yl tetradecanoate] | 100% |  | 3.2% | 1.2% | 0% |  |
| CCCCCCCCCCCCCCC(=O)Oc1ccc2c3c1O[C@H]1C(=O)CC[C@@]4(O)C(C2)N(CC2CC2)CC[C@]314 [Compound 58, (4aS,7aR,12bS)-3-(cyclopropylmethyl)-4a-hydroxy-7-oxo-2,3,4,4a,5,6,7,7a-octahydro-1H-4,12-methanobenzofuro[3,2-e]isoquinolin-9-yl pentadecanoate] | 100% | 37% | 20% | 2.9% | 1.8% |  |
| Enalapril maleate salt [reference compound] | 100% | 44% | 2.9% | 8.2% | 4.8% |  |
